US8753673B2, “Liposome composition for delivery of a therapeutic agent to eyes” (Taiwan Liposome Co. Ltd., priority 2006, dated 2014)

Legend:
[1] = Single-photon emission computed tomography (SPECT) imaging of unilateral-CNV rats; assay type: in vivo, Brown Norway (BN) pigmented rats; conditions: 3, 24 and 48 hours after i.v. 250 μCi
Description: (§1) In the process of monitoring the behavior of these animals, 2 to 3 out of the 10 rats were unable to walk straight. This abnormal behavior might be related to vision loss of the right eye as the result of laser photocoagulation. There were no other noticeable side effects observed in these rats.
The SPECT imaging was carried out at 3, 24, and 48 hours after the injection of 250 μCi of either In^111-DTPA or In^111 encapsulated liposome. […] The center field of view was 25.4 cm^2 and a single energy centered window was used at […], with a width of 20%. A sequence of scans ([…]×6) was obtained over a period of 15 min. Images were reconstructed in a 128×128 (pixels) format from data with 32 projections distributed over 180° around the rat and a 40 s scan for each projection. The projections of each experiment were processed by reconstruction using filtered back projection, with a low-pass Butterworth filter of order 22.4 and cutoff frequency of 0.43. Each transverse image was reconstructed in a 128×128 array with a pixel size of 1.9×1.9 mm and a zoom of 2.0×.
The experiment determines the biodistribution of In^111, a small molecular marker and In^111-encapsulated liposome, a lipid nano-particle in an experimental CNV model. Ten unilateral CNV rats were randomly divided into two groups with 4 and 6 rats, respectively. […]

[2] = Bio-distribution of radioactivity in normal and CNV eyes of unilateral-CNV rats (γ scintillation counting after perfusion); assay type: in vivo, Brown Norway (BN) pigmented rats; conditions: for specific radioactivity, CNV eye: CNV (right) eye; for specific radioactivity, CNV eye / specific radioactivity, normal eye: i.v. 250 μCi, means ± s.d.; for specific radioactivity, normal eye: normal (left) eye
Description: as §1
After the SPECT, all rats were sacrificed and perfused with normal saline containing 2 mM EDTA. Animals were dissected to isolate both normal (left) and CNV (right) eyes. The isolated eyes were weighted and radioactivity associated with the eyes was counted by a γ scintillation counter (Cobra II Autogamma, Packed, USA). The uptake of radiotracer in the eyes or other tissues was expressed in counts per minute (cpm) with decay correction and was normalized as percent of injection dose per gram tissue (% ID/g).
The experiment determines the biodistribution of In^111, a small molecular marker and In^111-encapsulated liposome, a lipid nano-particle in an experimental CNV model. Ten unilateral CNV rats were randomly divided into two groups with 4 and 6 rats, respectively. Group 1 received 250 μCi of In^111-DTPA and group 2 received 250 μCi of In^111-encapsulated liposome by intravenous injection.

[3] = Fluorescein angiography (FAG) and visual observation of eyes in unilateral-CNV rats after i.v. injection; conditions: normal and CNV eyes, visual observation up to 24 hours
Description: Brown Norway (BN) pigmented rats, weighing between 200 and 250 gram, were anesthetized with intramuscular injection of 0.15 ml/kg of an equal-volume mixture of 2% lidocaine (Xylocalne; Astra, Astra Södertalje, Sweden) and 50 mg/mL ketamine (Ketalar; Parke-Davis, Morris Plains, N.J.). After anesthetizing, the right pupils were dilated with 1% tropicamide (1% Mydriacyl; Alcon Laboratories, Watford, UK). A small piece of transparent sheet (3M, Minneapolis, Minn.) approximately 3 mm in diameter was attached to the cornea by sodium hyaluronidase (Healon; Pharmacia and Upjohn, Inc., Kalamazoo, Mich.) to serve as a contact lens. Krypton laser (Novus Omni; Coherent, Palo Alto, Calif.) irradiation was delivered through a slit lamp (Carl Zeiss, Oberkochen, Germany). Laser parameters used were as follows: spot size of 100 mm, power of 120 to 160 mW, and exposure duration of 0.1 second. […] CNV was evaluated on day 14 by opthalmoscopy, fundus photography, and conventional fluorescein angiography (FAG) modified from (DiLoreto D, Grover D A, Del Cerro C. (1994) Curr Eye Res. 13, 157-61).
Fluorescein sodium (10%; 0.1 ml/kg; Fluorescite™; Alcon, Fort Worth, Tex.) was injected through the tail vein of the anesthetized rats 14 days after laser photocoagulation. The CNV lesions were recorded with a digital fundus camera (Retinal Angiography; Heidelberg Engineering, Heidelberg, Germany). […]

| difference in specific radioactivity between the normal and CNV eyes ([2]; 24 and 48 hours post-injection) | specific radioactivity, CNV eye ([2]; 24 hours post injection) [% ID/g] | specific radioactivity, CNV eye ([2]; 48 hours post injection) [% ID/g] | specific radioactivity, normal eye ([2]; 24 hours post injection) [% ID/g] | specific radioactivity, normal eye ([2]; 48 hours post injection) [% ID/g] | Compound | accumulation of radioactivity in eyes on SPECT images [1] | visual appearance (colour) of the eyes after i.v. administration [3] |
| --- | --- | --- | --- | --- | --- | --- | --- |
| no difference | 0.14 ± 0.09 | 0.13 ± 0.05 | 0.16 ± 0.04 | 0.14 ± 0.06 | O=C([O-])CN(CCN(CC(=O)[O-])CC(=O)[O-])CCN(CC(=O)[O-])CC(=O)[O-].[111In+3].[H+].[H+] [In^111-DTPA] | did not show any In^111 accumulation in both normal and CNV eyes even at 3 hours | – |
| – | – | – | – | – | O=C1OC2(c3ccc(O)cc3Oc3cc(O)ccc32)c2ccccc21 [fluorescein sodium, Fluorescein sodium] | – | greenish color quickly disappeared within an hour |
